No end group written: not given here.
Columns and labels:
Format in all cases: cell-based, human
[1] = system: PC93-A24 cells (HLA-A24+ prostate cancer cell); assay: 6-hour 51Cr release test of peptide-induced CTL against HLA-A24+ prostate cancer cells; settings: for Cytotoxic activity (% lysis): HLA-A24+ prostate cancer cell
Method: (§1) The cytotoxic activity of CTL induced from the PBMC of an HLA-A24^+ prostate cancer patient by PSM624-632 (SEQ ID NO: 3) was examined in the ^51Cr release test using prostate cancer cells. First, PBMC from two patients with prostate cancer were cultured for 10 days and stimulated as in Example 1, and then further cultured for 10 days prior to use as effector cells. The cytotoxic activity of the effector cells against HLA-A24^+ target cells was measured by a standard 6-hour ^51Cr release test at an E/T ratio of 10:1 or 20:1, and the results obtained were expressed as the percentage of specific lysis. PC93-A24 cells resulting from the introduction and expression of the HLA-A24 gene in HLA-A24^− prostate cancer cells (PC93), methods known in the art, were used as target cells. In addition, the HLA-A24^− prostate cancer cells were used as controls.
PBMC were cultured with 10 μg/ml each of PSA152-160 (SEQ ID NO: 1) or PSA248-257 (SEQ ID NO: 2) for 12 days, in the same manner as described above. Prostate cancer cells PC93-A24, which were created in Example 2 and used as target cells, were incubated with the aforementioned cultured PBMC, and then the amount of IFN-γ in the culture supernatant was measured (see Example 1). In addition, the aforementioned cultured cells were cultured for 14 additional days, and the cytotoxic activity against the PC93-A24 cells was measured by the ^51Cr release test (see Example 2).

[2] = system: C1R-A2402 cells (HLA-A24+) pulsed with the same peptide; assay: IFN-γ production (ELISA) by peptide-stimulated PBMC in reaction to peptide-pulsed C1R-A2402 cells; induction of HLA-A24-restricted CTL; settings: PBMC of prostate cancer patients; for cases in which the peptide enhanced the production of IFN-γ from PBMC: 10 μM peptide, 10 days, positive = significant, 50 pg/ml NET or more, Example 1
Method: The ability of the synthesized peptide to induce HLA-A24-restricted CTL from the PBMC that was prepared from a prostate cancer patient was examined. The PBMC were prepared from blood by a method of the art. 1×10^5 PBMC were cultured with 10 μM of each peptide in each well of a U-shaped 96-well micro-culture plate (produced by Nunc) to which 200 μl of culture medium (comprising 45% RPMI-1640 culture medium, 45% AIM-V® culture medium (Invitrogen), 100 U/ml of IL-2, 0.1 mM of MEM non-essential amino acid solution (Invitrogen), and 10% FCS) was added, at 37° C. under conditions of 5% CO2-95% air. At 4 days and 7 days of culturing, half of the culture medium was removed and replaced with a culture medium having the aforementioned composition containing the peptide equivalent to the peptide that was added in the beginning. At 10 days of culturing, the cells were collected, washed, and used as effector cells (E).
Meanwhile, each synthesized peptide (10 μM) was incubated with C1R-A2402 cells (HLA-A24^+) for 2 hours at 37° C. under conditions of 5% CO2-95% air, to make the peptide of interest bind to the HLA-A24 molecule expressed on the cell surface. C1R-A2402 cells thus pulsed with each of peptide were used as target cells (T).
The effector cells were equally divided, and mixed with a variety of target cells, followed by incubating for 18 hours at 37° C. under conditions of 5% CO2-95% air. After incubation, 100 μl of supernatant was collected, and the amount of IFN-γ produced was measured by ELISA. In so doing, the effector cells were paired with the target cells in such a way that the peptide used to induce the effector cells and the peptide pulsed to C1R-A2402 cells were the same. In addition, a peptide derived from the human immunodeficiency virus (hereinafter abbreviated as HIV) was used as a control, and the quantity of IFN-γ produced by CTL that recognized C1R-A2402 cells pulsed with the HIV peptide was taken as a background and subtracted from each measurement value. Each measurement value (NET) that has been calculated was statistically processed by the Student's t-test, and those with a P value of 0.05 or below were considered to be significant. In addition, a peptide that enhanced IFN-γ production with significance by 50 pg/ml NET or more was assessed as positive. […]

[3] = system: HLA-A24- prostate cancer cells (PC93); assay: 6-hour 51Cr release test of peptide-induced CTL against HLA-A24- prostate cancer cells (control); settings: HLA-A24- prostate cancer cell
Method: as §1

[4] = PBMC of a healthy subject, stimulated 12 days + 14 days, significant versus PC93 cells (FIG. 7B)
[5] = PBMC of prostate cancer patients, significant versus PC93 cells (FIG. 8B)
[6] = PBMC of prostate cancer patient 1, E/T = 10
[7] = PBMC of prostate cancer patient 1, E/T = 20
[8] = PBMC of prostate cancer patient 2, E/T = 10
[9] = PBMC of prostate cancer patient 2, E/T = 20

Substance: CYASGWGSI [PSA152-160]
- cytotoxic activity against PC93-A24 cells [1, 4]: exhibited cytotoxic activity
- cytotoxic activity against PC93-A24 cells [1, 5]: exhibited cytotoxic activity

Substance: HYRKWIKDTI [PSA248-257]
- cytotoxic activity against PC93-A24 cells [1, 4]: exhibited cytotoxic activity
- cytotoxic activity against PC93-A24 cells [1, 5]: exhibited cytotoxic activity

Substance: PSCA27-36: peptide (PSCA residues 27-36) that did not induce HLA-A24-restricted CTL (LQVENCTQLG)
- induction of HLA-A24-restricted CTL [2]: did not induce

Substance: PSCA76-84: peptide derived from PSCA, residues 76-84, HLA-A24-binding motif (DYYVGKKNI; A peptide recognized by HLA-A24 restricted cytotoxic T lymphocytes, which is designed based on the amino acid sequence of PSCA)
- cases in which the peptide enhanced the production of IFN-γ from PBMC [2]: 1 out of 12

Substance: PSCA82-91: peptide derived from PSCA, residues 82-91, HLA-A24-binding motif (KNITCCDTDL; A peptide recognized by HLA-A24 restricted cytotoxic T lymphocytes, which is designed based on the amino acid sequence of PSCA)
- cases in which the peptide enhanced the production of IFN-γ from PBMC [2]: 2 out of 12

Substance: PSM74-83: peptide derived from PSMA that did not induce HLA-A24-restricted CTL (LYNFTQIPHL)
- induction of HLA-A24-restricted CTL [2]: did not induce

Substance: PSM178-186: peptide derived from PSMA that did not induce HLA-A24-restricted CTL (NYARTEDFF)
- induction of HLA-A24-restricted CTL [2]: did not induce

Substance: PSM227-235: peptide derived from PSMA that did not induce HLA-A24-restricted CTL (LYSDPADYF)
- induction of HLA-A24-restricted CTL [2]: did not induce

Substance: PSM298-306: peptide derived from PSMA that did not induce HLA-A24-restricted CTL (GYYDAQKLL)
- induction of HLA-A24-restricted CTL [2]: did not induce

Substance: PSM448-456: peptide derived from PSMA that did not induce HLA-A24-restricted CTL (AYINADSSI)
- induction of HLA-A24-restricted CTL [2]: did not induce

Substance: PSM520-528: peptide derived from PSMA that did not induce HLA-A24-restricted CTL (DFEVFFQRL)
- induction of HLA-A24-restricted CTL [2]: did not induce

Substance: PSM565-574: peptide derived from PSMA that did not induce HLA-A24-restricted CTL (FYDPMFKYHL)
- induction of HLA-A24-restricted CTL [2]: did not induce

Substance: PSM584-593: peptide derived from PSMA that did not induce HLA-A24-restricted CTL (VFELANSIVL)
- induction of HLA-A24-restricted CTL [2]: did not induce

Substance: PSM606-614: peptide derived from PSMA that did not induce HLA-A24-restricted CTL (KYADKIYSI)
- induction of HLA-A24-restricted CTL [2]: did not induce

Substance: PSM624-633: peptide derived from PSMA that did not induce HLA-A24-restricted CTL (TYSVSFDSLF)
- induction of HLA-A24-restricted CTL [2]: did not induce

Substance: PSM699-708: peptide derived from PSMA that did not induce HLA-A24-restricted CTL (KYAGESFPGI)
- induction of HLA-A24-restricted CTL [2]: did not induce

Substance: PSM704-712: peptide derived from PSMA that did not induce HLA-A24-restricted CTL (SFPGIYDAL)
- induction of HLA-A24-restricted CTL [2]: did not induce

Substance: TYSVSFDSL [PSM624-632]
- Cytotoxic activity (% lysis) [1, 6]: 16.1 % lysis
- Cytotoxic activity (% lysis) [1, 7]: 19.9 % lysis
- Cytotoxic activity (% lysis) [1, 8]: 18.0 % lysis
- Cytotoxic activity (% lysis) [1, 9]: 17.8 % lysis
- Cytotoxic activity (% lysis) [3, 6]: 6.6 % lysis
- Cytotoxic activity (% lysis) [3, 7]: 6.1 % lysis
- Cytotoxic activity (% lysis) [3, 8]: 3.5 % lysis
- Cytotoxic activity (% lysis) [3, 9]: 5.6 % lysis
